# Laboratory results reported in ChEMBL document CHEMBL4270488, “Antibacterial Compounds from Marine Bacteria, 2010-2015” (J Nat Prod, 2017).
# *1 amine or outer side, *2 acyl side, *3 side chain or, on linkers, in order; H or OH if unused. Where a SMILES comes first, the peptide text is derived from it. Bridges are numbered along the chain shown (N, C = ends). Roman numbers before positions name the chains, in order. [ ]: non-standard residue; d: D form. Actinocin(1to9) = Cc1c2oc3c(C)ccc(C(=O)[*:2])c3nc-2c(C(=O)[*:1])c(N)c1=O; Pro(4-oxo) = O=C1CN[C@H](C(=O)O)C1; NMeV = CN[C@H](C(=O)O)C(C)C; Sar = CNCC(=O)O
# Columns and labels:
# [1] = tested on: Mycobacterium tuberculosis; test: Antibacterial activity against Mycobacterium tuberculosis H37Rv ATCC 27294 incubated for 10 days by GFP based fluorescence assay; assay type: functional; conditions: H37Rv ATCC 27294, 240 h
# [2] = tested on: Bacillus subtilis; test: Antibacterial activity against Bacillus subtilis CMCC63501; assay type: functional
# [3] = tested on: Staphylococcus aureus; test: Antibacterial activity against Staphylococcus aureus incubated for 24 hrs by standard broth dilution assay; assay type: functional
# [4] = tested on: Bacillus subtilis; test: Antibacterial activity against Bacillus subtilis incubated for 24 hrs by standard broth dilution assay; assay type: functional
# [5] = tested on: Escherichia coli; test: Antibacterial activity against Escherichia coli incubated for 24 hrs by standard broth dilution assay; assay type: functional
# [6] = tested on: Pseudomonas aeruginosa; test: Antibacterial activity against Pseudomonas aeruginosa incubated for 24 hrs by standard broth dilution assay; assay type: functional
# [7] = tested on: Bacillus subtilis; test: Antibacterial activity against Bacillus subtilis 769 measured after overnight incubation by microdilution method; assay type: functional
# [8] = tested on: Staphylococcus aureus; test: Antibacterial activity against methicillin-resistant Staphylococcus aureus ATCC 43300 measured after overnight incubation by microdilution method; assay type: functional
# [9] = tested on: Staphylococcus haemolyticus; test: Antibacterial activity against Staphylococcus haemolyticus UST950701-004 measured after overnight incubation by microdilution method; assay type: functional
# [10] = tested on: Staphylococcus aureus; test: Antibacterial activity against Staphylococcus aureus UST950701-005 measured after overnight incubation by microdilution method; assay type: functional
# [11] = tested on: Staphylococcus epidermidis; test: Antibacterial activity against Staphylococcus epidermidis DSM 20044 incubated for 5 hrs by resazurin dye reduction based assay; assay type: functional, organism-based; conditions: DSM 20044, 5 h
# [12] = tested on: Bacillus subtilis; test: Antibacterial activity against Bacillus subtilis DSM 347 incubated for 5 hrs by resazurin dye reduction based assay; assay type: functional, organism-based; conditions: DSM 347, 5 h
# [13] = tested on: Pseudomonas aeruginosa; test: Antibacterial activity against Pseudomonas aeruginosa by broth dilution assay; assay type: functional
# [14] = Antibacterial activity Bacillus pumilus against by broth dilution assay; assay type: functional
# [15] = tested on: Staphylococcus aureus; test: Antibacterial activity against Staphylococcus aureus ATCC 29213; assay type: functional
# [16] = tested on: Enterococcus faecalis; test: Antibacterial activity against Enterococcus faecalis ATCC 29212; assay type: functional
# [17] = tested on: Bacillus thuringiensis; test: Antibacterial activity against Bacillus thuringiensis SCSIO BT01; assay type: functional
# [18] = tested on: Staphylococcus aureus; test: Antibacterial activity against Staphylococcus aureus incubated for 18 hrs; assay type: functional
# [19] = tested on: Yersinia pseudotuberculosis; test: Inhibition of type 3 secretion system protein secretion in Yersinia pseudotuberculosis at 30 ug/ml incubated for 2 hrs by SDS-PAGE and densitometric analysis
# [20] = tested on: Mycobacterium tuberculosis; test: Antibacterial activity against Mycobacterium tuberculosis H37Rv ATCC 27294 incubated […]; assay type: functional
# [21] = tested on: Bacillus subtilis; test: Antibacterial activity against Bacillus subtilis ATCC […] incubated for 16 hrs; assay type: functional
# [22] = Inhibition of Escherichia coli RNA polymerase
# [23] = Inhibition of Staphylococcus aureus RNA polymerase
# [24] = tested on: Bacillus subtilis; test: Antibacterial activity against Bacillus subtilis SCSIO BS01; assay type: functional
compound,measurement,setting,value
Cc1c2oc3c(C)ccc(C(=O)N[C@@H]4C(=O)N[C@H](C(C)C)C(=O)N5CCC[C@H]5C(=O)N(C)CC(=O)N(C)[C@@H](C(C)C)C(=O)O[C@@H]4C)c3nc-2c(C(=O)N[C@@H]2C(=O)N[C@H](C(C)C)C(=O)N3CC(O)C[C@H]3C(=O)N(C)CC(=O)N(C)[C@@H](C(C)C)C(=O)O[C@@H]2C)c(N)c1=O (stereo not given in full),MIC,[1],1 to 8 µg/mL
CC1(C)S[C@@H]2[C@H](NC(=O)[C@H](N)c3ccccc3)C(=O)N2[C@H]1C(=O)O [AMPICILLIN],MIC,[2],1.6 to 3.1 µg/mL
CCCCCCCCCCCC(=O)N(CCO)CCO,MIC,[3],0.02 to 0.13 µg/mL
same,MIC,[4],0.02 to 0.13 µg/mL
same,MIC,[5],0.02 to 0.13 µg/mL
same,MIC,[6],0.02 to 0.13 µg/mL
C[C@@H]1CCC/C=C/[C@@H]2O[C@@H](C/C=C\C=C\[C@H](O[C@@H]3O[C@H](CO)[C@@H](O)[C@H](O)[C@H]3O)C/C=C/C=C\C(=O)O1)C[C@@H](O)[C@H]2O,MIC,[3],0.02 to 0.13 µg/mL
same,MIC,[4],0.02 to 0.13 µg/mL
same,MIC,[5],0.02 to 0.13 µg/mL
same,MIC,[6],0.02 to 0.13 µg/mL
COc1ccc2oc3c4c(c(O)c(O)c3c(=O)c2c1O)CCc1cc2c(c(O)c1-4)C(=O)N1[C@@](C)(CO)C(=O)O[C@@]1(C)C2,MIC,[7],≤ 1 µg/mL
same,MIC,[8],≤ 1 µg/mL
same,MIC,[9],≤ 1 µg/mL
same,MIC,[10],≤ 1 µg/mL
"Cc1c2oc3c(C)ccc(C(=O)N[C@@H]4C(=O)N[C@H](C(C)C)C(=O)N5CCC[C@H]5C(=O)N(C)CC(=O)N(C)[C@@H](C(C)C)C(=O)O[C@@H]4C)c3nc-2c(C(=O)N[C@@H]2C(=O)N[C@H](C(C)C)C(=O)N3CCC[C@H]3C(=O)N(C)CC(=O)N(C)[C@@H](C(C)C)C(=O)O[C@@H]2C)c(N)c1=O [DACTINOMYCIN] (I: T[dV]P[Sar][NMeV] / II: T[dV]P[Sar][NMeV]; ester I:1-I:C, II:1-II:C; linker I:N-II:N via Actinocin(1to9))",MIC,[1],1 to 8 µg/mL
CCC(C)CCC[C@H](C(=O)OC)[C@@H](O)c1cccc2nc3c(C(=O)OC)cccc3nc12 (stereo not given in full),IC50,[11],3.6 µg/mL
same,IC50,[12],3.6 µg/mL
CN(C)[C@@H]1C(O)=C(C(N)=O)C(=O)[C@@]2(O)C(O)=C3C(=O)c4c(O)cccc4[C@@](C)(O)[C@H]3C[C@@H]12 [TETRACYCLINE],MIC,[13],40 to 80 µg/mL
same,MIC,[14],40 to 80 µg/mL
CC[C@]1(O)C[C@@]2(O)c3c(c(C)cc(=O)n3C)C(=O)c3c(C)cc(=O)n1c32,MIC,[15],1 to 4 µg/mL
same,MIC,[16],1 to 4 µg/mL
same,MIC,[17],1 to 4 µg/mL
C[C@@H]1CCC/C=C/[C@@H]2O[C@H](C[C@@H](O)C/C=C\C=C\[C@H](O[C@@H]3O[C@H](CO)[C@@H](O)[C@H](O)[C@H]3O)C/C=C/C=C\C(=O)O1)[C@H]2O,MIC,[3],0.02 to 0.13 µg/mL
same,MIC,[4],0.02 to 0.13 µg/mL
same,MIC,[5],0.02 to 0.13 µg/mL
same,MIC,[6],0.02 to 0.13 µg/mL
Cc1cc(=O)[nH]c2c1C(=O)c1c(C)cc(=O)n(C)c1C2=O,MIC,[15],1 to 4 µg/mL
same,MIC,[16],1 to 4 µg/mL
same,MIC,[17],1 to 4 µg/mL
COc1ccc2oc3c4c(c(O)c(O)c3c(=O)c2c1O)CCc1cc2c(c(O)c1-4)C(=O)N1[C@@](C)(C2)OC(=O)[C@]1(C)CO,MIC,[7],≤ 1 µg/mL
same,MIC,[8],≤ 1 µg/mL
same,MIC,[9],≤ 1 µg/mL
same,MIC,[10],≤ 1 µg/mL
C[C@@H]1O[C@](C)(C(=O)O)O[C@H]1/C=C/C=C/C=C/C(=O)O[C@H]1CC[C@H](c2ccc3c(c2O)C(=O)c2cc(O)c4c(c2C3=O)C(=O)[C@H](O)[C@](C)(O)C4)O[C@@H]1C,MIC,[18],2 to 6 µg/mL
C[C@@H]1O[C@](C)(C(=O)O)O[C@H]1/C=C/C=C/C=C/C(=O)O[C@H]1CC[C@H](c2ccc3c(c2O)C(=O)c2ccc4c(c2C3=O)C(=O)[C@H](O)[C@](C)(O)C4)O[C@@H]1C,MIC,[18],2 to 6 µg/mL
C/C=C(\C)[C@H](C)[C@H](C)/C=C(C)/C=C/C/C(C)=C/Cc1cc(O)cc(OC)n1,inhibition,[19],45%
CCn1cc(C(=O)O)c(=O)c2ccc(C)nc21 [NALIDIXIC ACID],MIC,[13],1250 to 1500 µg/mL
same,MIC,[14],1250 to 1500 µg/mL
Cc1cc(=O)n(C)c2c1C(=O)c1c(C)cc(=O)n3c1[C@@]2(O)C[C@]3(C)O,MIC,[15],1 to 4 µg/mL
same,MIC,[16],1 to 4 µg/mL
same,MIC,[17],1 to 4 µg/mL
COC(=O)N[C@H]1[C@@H](C)O[C@@H](O[C@H]2C/C=C(\C)[C@@H]3C=C[C@@H]4[C@@H](O[C@H]5C[C@@H](O[C@H]6C[C@@H](O)[C@@H](O[C@@H]7C[C@@H](O)[C@@H](OC)[C@H](C)O7)[C@H](C)O6)[C@@H](O)[C@H](C)O5)[C@@H](C)C[C@H](C)[C@H]4[C@]3(C)C(=O)C3=C(O)[C@@]4(C[C@@H](C)C(CO)=C[C@H]4/C=C/2C)OC3=O)C[C@]1(C)N,MIC,[20],16 to 32 µg/mL
same,MIC,[21],1.5 to 12 µg/mL
CCC(C)CCC[C@H](C(=O)OC)[C@@H](O)c1cccc2nc3c(C(=O)O)cccc3nc12 (stereo not given in full),IC50,[11],6.1 µg/mL
same,IC50,[12],9.1 µg/mL
COC(=O)[C@@]1(C)O[C@@H](C)[C@H](/C=C/C=C/C=C/C(=O)O[C@H]2CC[C@H](c3ccc4c(c3O)C(=O)C3=C(C4=O)[C@@]4(O)C(=O)[C@H](O)[C@](C)(O)C[C@@]4(O)C=C3)O[C@@H]2C)O1,MIC,[18],2 to 6 µg/mL
C/C=C(\C)[C@H](O)[C@H](C)/C=C(C)/C=C/C/C(C)=C/Cc1nc(OC)c(OC)c(O)c1C,inhibition,[19],65%
CC[C@H](C)[C@H]1NC(=O)[C@@H](NC(=O)[C@H](C)[C@H](O)C(C)C)[C@@H](C)OC(=O)[C@H]2NC(=O)[C@@H](C(C)C)NC(=O)[C@@H](Cc3ccccc3)N(C)C(=O)[C@@H](NC1=O)c1ccc(cc1)O[C@H](C)[C@@](O)(CCl)/C=C\C(=O)NCC(=O)O2,IC50,[22],0.2 to 2 µM
same,IC50,[23],0.2 to 4 µM
"Cc1c2oc3c(C)ccc(C(=O)N[C@@H]4C(=O)N[C@H](C(C)C)C(=O)N5CCC[C@H]5C(=O)N(C)CC(=O)N(C)[C@@H](C(C)C)C(=O)O[C@@H]4C)c3nc-2c(C(=O)N[C@@H]2C(=O)N[C@H](C(C)C)C(=O)N3CC(=O)C[C@H]3C(=O)N(C)CC(=O)N(C)[C@@H](C(C)C)C(=O)O[C@@H]2C)c(N)c1=O (I: T[dV][Pro(4-oxo)][Sar][NMeV] / II: T[dV]P[Sar][NMeV]; ester I:1-I:C, II:1-II:C; linker I:N-II:N via Actinocin(1to9))",MIC,[1],1 to 8 µg/mL
COC(=O)N[C@H]1[C@@H](C)O[C@@H](O[C@H]2C/C=C(\C)[C@@H]3C=C[C@@H]4[C@@H](O[C@H]5C[C@@H](O[C@H]6C[C@@H](O)[C@@H](O[C@@H]7C[C@@H](O)[C@@H](OC)[C@H](C)O7)[C@H](C)O6)[C@@H](O)[C@H](C)O5)[C@@H](C)C[C@H](C)[C@H]4[C@]3(C)C(=O)C3=C(O)[C@@]4(C[C@@H](C)C(C=O)=C[C@H]4/C=C/2C)OC3=O)C[C@]1(C)[N+](=O)[O-],MIC,[2],1.6 to 3.1 µg/mL
same,MIC,[15],6.2 to 50 µg/mL
CC(C)=CCC/C(C)=C/C[C@@]12OC(C)(C)[C@H](Cl)C=C1C(=O)c1c(O)cc(O)cc1C2=O,MIC,[24],4 to 32 µg/mL
same,MIC,[15],4 to 32 µg/mL
same,MIC,[17],4 to 32 µg/mL
